From ChEMBL document CHEMBL1201862, “PubChem BioAssay data set” (2004)
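Step 1: Grow cells in 96-well plates. Step 2: Expose to compound for 48 hours at 5 concentrations. Step 3: Interpolate endpoints linearly; if unreached, use highest concentration. At the GI50, growth is halved.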 The source made the active and inactive calls. Cut-off read from the data, not from the text of the source: active = GI50 up to about 1.1 µM and inactive = higher.

Key:
Test in all cases: inhibition of tumour cell growth, NCI panel, 48 h
A498 = test system: A498
A549 = test system: A549
CAKI-1 = test system: CAKI-1
CCRF-CEM = test system: CCRF-CEM
EKVX = test system: EKVX
HCT-15 = test system: HCT-15
IGROV-1 = test system: IGROV-1
M14 = test system: M14
MDA-N = test system: MDA-N
NCI-H23 = test system: NCI-H23
OVCAR-3 = test system: OVCAR-3
OVCAR-4 = test system: OVCAR-4
OVCAR-8 = test system: OVCAR-8
RPMI-8226 = test system: RPMI-8226
SF-268 = test system: SF-268
SF-539 = test system: SF-539
SK-MEL-2 = test system: SK-MEL-2
SK-OV-3 = test system: SK-OV-3
SW-620 = test system: SW-620
UACC-257 = test system: UACC-257

| SMILES | GI50 (A498) | GI50 (A549) | GI50 (CAKI-1) | GI50 (CCRF-CEM) | GI50 (EKVX) | GI50 (HCT-15) [µM] | GI50 (IGROV-1) | GI50 (M14) | GI50 (MDA-N) | GI50 (NCI-H23) | GI50 (OVCAR-3) | GI50 (OVCAR-4) | GI50 (OVCAR-8) | GI50 (RPMI-8226) | GI50 (SF-268) | GI50 (SF-539) | GI50 (SK-MEL-2) | GI50 (SK-OV-3) | GI50 (SW-620) | GI50 (UACC-257) |
| --- | --- | --- | --- | --- | --- | --- | --- | --- | --- | --- | --- | --- | --- | --- | --- | --- | --- | --- | --- | --- |
| C#CCn1c(=O)c2ccccc2n(CC#C)c1=O | > 10 µM (inactive) | > 10 µM (inactive) | > 10 µM (inactive) | > 10 µM (inactive) | > 10 µM (inactive) | > 10 | > 10 µM (inactive) | > 10 µM (inactive) | > 10 µM (inactive) | > 10 µM (inactive) | > 10 µM (inactive) | > 10 µM (inactive) | > 10 µM (inactive) | > 10 µM (inactive) | > 10 µM (inactive) | > 10 µM (inactive) | > 10 µM (inactive) | > 10 µM (inactive) | > 10 µM (inactive) | > 10 µM (inactive) |
| COC(=O)/C=C1/OC(c2ccccc2)=C(Cl)C1=O | 29.4 µM (inactive) | 26.4 µM (inactive) | 18.2 µM (inactive) | 5.58 µM (inactive) | 19.5 µM (inactive) | 8.97 | 19.8 µM (inactive) | 16.9 µM (inactive) | 20.3 µM (inactive) | 19.4 µM (inactive) | 16.7 µM (inactive) | 20.7 µM (inactive) | 21.3 µM (inactive) | 7.33 µM (inactive) | 19.5 µM (inactive) | 19.8 µM (inactive) | 21.3 µM (inactive) | 31.6 µM (inactive) | 20.5 µM (inactive) | 24.9 µM (inactive) |
| N=C(N)NCCCC(NC(=O)c1c2ccccc2nc2ccccc12)C(=O)O (stereo not drawn) | > 100 µM (inactive) | > 100 µM (inactive) | > 100 µM (inactive) | > 100 µM (inactive) | > 100 µM (inactive) | > 100 | > 100 µM (inactive) | > 100 µM (inactive) | > 100 µM (inactive) | > 100 µM (inactive) | > 100 µM (inactive) | > 100 µM (inactive) | > 100 µM (inactive) | > 100 µM (inactive) | > 100 µM (inactive) | > 100 µM (inactive) | > 100 µM (inactive) | > 100 µM (inactive) | > 100 µM (inactive) | > 100 µM (inactive) |
| COc1ccc2cc(CNCCOCCOCCNCc3ccc4cc(OC)ccc4c3)ccc2c1 | 1.68 µM (inactive) | 1.58 µM (inactive) | 1.61 µM (inactive) | 0.341 µM (active) | 1.57 µM (inactive) | 0.527 | 1.63 µM (inactive) | 0.26 µM (active) | 0.889 µM (active) | 1.5 µM (inactive) | 1.73 µM (inactive) | 1.92 µM (inactive) | 1.49 µM (inactive) | 0.209 µM (active) | 1.42 µM (inactive) | 1.54 µM (inactive) | 1.53 µM (inactive) | 1.79 µM (inactive) | 0.348 µM (active) | 1.58 µM (inactive) |
| COC1C(O)=C2C(=O)OC(C)(O)/C=C/C=C\C=C/C=C/C(c3ccccc3)NC(=O)/C=C/C=C/C=C/C=C/C2(C)C1O (stereo not drawn) | 0.0137 µM (active) | 0.00105 µM (active) | 0.0175 µM (active) | 0.383 µM (active) | 0.0118 µM (active) | < 0.001 | 0.0165 µM (active) | 0.0792 µM (active) | 0.0275 µM (active) | 0.0158 µM (active) | 0.0445 µM (active) | 0.0678 µM (active) | 0.0034 µM (active) | 0.0111 µM (active) | 0.0171 µM (active) | 0.0179 µM (active) | 0.0361 µM (active) | 0.0253 µM (active) | 0.00139 µM (active) | 0.0363 µM (active) |
| CS/C(Nc1ccccc1)=C1\C(=O)N(c2ccccc2)N=C1C | 95.7 µM (inactive) | > 100 µM (inactive) | 52 µM (inactive) | > 100 µM (inactive) | > 100 µM (inactive) | > 100 | – | > 100 µM (inactive) | > 100 µM (inactive) | > 100 µM (inactive) | > 100 µM (inactive) | > 100 µM (inactive) | > 100 µM (inactive) | > 100 µM (inactive) | > 100 µM (inactive) | > 100 µM (inactive) | > 100 µM (inactive) | > 100 µM (inactive) | > 100 µM (inactive) | > 100 µM (inactive) |
| CC(=O)N1CC(=O)N2C(=O)/C(=C/c3ccc(Cl)cc3)N=C12 | > 100 µM (inactive) | > 100 µM (inactive) | > 100 µM (inactive) | 45 µM (inactive) | > 100 µM (inactive) | > 100 | – | > 100 µM (inactive) | > 100 µM (inactive) | > 100 µM (inactive) | > 100 µM (inactive) | > 100 µM (inactive) | > 100 µM (inactive) | 50.7 µM (inactive) | > 100 µM (inactive) | > 100 µM (inactive) | > 100 µM (inactive) | > 100 µM (inactive) | > 100 µM (inactive) | > 100 µM (inactive) |
